Laboratory results as given in patent US7045495B2 (Sloan-Kettering Institute for Cancer Research, priority 1996, dated 2006).
Several values for one entry are separate records, joined by “and”; a condition that tells them apart may be missing. Equal values may be shown once.

Key:
[1] = test system: MDA-MB-468 breast cancer cells; assay: apoptosis by QFM, Hoechst-33258 staining; type: cell-based, human; conditions: for percentage of cells undergoing apoptosis (QFM): FIG. 9, safingol 50 μM
Protocol: PRELIMINARY STUDIES. […] Apoptosis was measured by quantitative fluorescent microscopy (QFM) of nuclear changes induced by apoptosis, as determined by bisbenzimide trihydrochloride (Hoescht-33258) staining of condensed nuclear chromatin (24). For the QFM duplicate samples of 500 cells each were counted and scored for the incidence of apoptotic chromatin condensation using an Olympus BH-2 fluorescence microscope.
Applicants also tested the PKC inhibitor UCN-01 (27) which is currently in phase I clinical trial at the NCI. In contrast to safingol, which inhibits PKC by binding to its regulatory domain, UCN-01 inhibits PKC at its catalytic domain. Therefore, assessment of the effect of UCN-01 on inducing apoptosis in combination with MMC on MDA-MB-468 was also performed. The QFM method to quantitate apoptosis was again used. The conditions tested were identical to those described above for safingol except UCN-01 (1 μM) was substituted for safingol in all the conditions.
(§1) Induction of apoptosis was estimated by counting the frequency of condensed nuclear chromatin with Hoechst-33258 stain in duplicate samples of 400 cells.

SK-GT-5 cells = assay: apoptosis by quantitative fluorescent microscopy (QFM), Hoechst-33258 staining; type: cell-based, human; conditions: for percentage of cells undergoing apoptosis (QFM): FIG. 4: safingol 50 μM and/or PMA 1 ng/ml for 1 hour, then MMC 5 μg/ml or no drug 24 hours, MMC alone 24 hours
Protocol: (§2) Apoptosis was measured by two different methods: (i) Quantitative fluorescent microscopy (QFM) of nuclear changes induced by apoptosis, as determined by bisbenzimide trihydrochloride (Hoescht-33258) staining of nuclear chromatin (15), and (ii) a terminal deoxynucleotidyl transferase (TdT) assay that labels the 3′-OH ends of DNA fragments produced in apoptotic cells (16). […] MMC was diluted in water. A stock safingol solution was constituted in DMSO and was subsequently diluted at least 1:100 in media for all experiments. […] For QFM determinations, the cells were fixed in 3% paraformaldehyde and incubated at room temperature for 10 minutes. The fixative was removed and the cells were washed with 1×PBS, resuspended in 20 μl 1×PBS containing only 8 μg/ml of bisbenzimide trihydrochloride (Hoechst #33258), and incubated at room temperature for 15 minutes. Aliquots of the cells (10 μl) were placed on glass slides coated with 3-amino-propyl-triethoxysilane, and duplicate samples of 500 cells each were counted and scored for the incidence of apoptotic chromatin condensation using an Olympus BH-2 fluorescence microscope equipped with a BH2-DM2U2UV Dich. Mirror Cube filter (Olympus, Lake Success, N.Y.). For the TdT assays, the ApopTag Kit (Oncor, Gaithersburg, Md.) was used. This method employs a fluoresceinated antidigoxigenin antibody directed against nucleotides of digoxigenin-11-dUTP (d-dUTP) which are catalytically added to the 3-ends fragmented DNA by TdT. Briefly, 1–2×10^6 cells were washed and fixed with 1% paraformaldehyde. The fixed cells were incubated in a reaction mixture containing TdT and d-dUTP for 30 minutes at 37° C. Stop/wash buffer was added, and the cells were resuspended in 100 μl of fluorescinated anti-digoxigenin antibody for 30 minutes at room temperature. The cells were then washed with 0.1% Triton X-100 and counterstained with propidium iodide (PI) solution. Green (d-dUTP labeled DNA strand breaks) and red (PI staining for total DNA content) fluorescence of individual cells were measured on a FACScan flow cytometer (Becton Dickinson, San Jose, Calif.). The resulting bivariate plots enabled the detection of apoptotic events within the cell cycle. The R1 cursor was set using the control specimen to define normal levels of green fluorescence (i.e., basal levels of apoptosis). Cells with fluorescence above the R, cursor were considered apoptotic. The data from 10,000 cells were collected and analyzed using CellFit and LYSYS software (Becton Dickinson).
For the QFM duplicate samples of 500 cells each were counted and scored for the incidence of apoptotic chromatin condensation using an Olympus BH-2 fluorescence microscope.

[2] = test system: gastric cancer cells (SK-GT cells); assay: cell proliferation studies with [3H]-thymidine; type: cell-based, human
cdk2 = cdk2 activity by histone type-I phosphorylation after immunoprecipitation from treated cells; type: cell-based, human; conditions: MKN-74 cells; 24 hours; MMC 5.0 μg/ml, safingol 50 μM; FIG. 8
Protocol: (ii) Safingol increases cdk2 activity only when co-administered with chemotherapy: For determination of cdk2 activity MKN-74 cells were treated according to the conditions shown to enhance chemotherapy induced apoptosis: (i) no drug (control) for 24 hours, (ii) Mitomycin-C alone (5.0 μg/ml) for 24 hours, (iii) Safingol alone (50 μM) for 24 hours, (iv) the combination of safingol (50 μM) and Mitomycin-C (MMC, 5.0 μg/ml) for 24 hours. Cdk2 activity was determined by histone type-I phosphorylation, as described (38). For these studies cdk2 was first immunoprecipitated from the cell lysates following treatment under these four conditions. The kinase reaction was allowed to proceed at 30° for 30 minutes in the presence of histone type-I and [^32P]ATP. For each sample a control sample was run under the same conditions, but IgG was used in place of […]. This allowed for detection on non-specific kinase activity which was then subtracted out from the cdk2 activity to determine the absolute radioactive incorporation attributable to cdk2. The samples were transferred to a 10% SDS PAGE gel for analysis. The autoradiographs were analyzed on a phosphoimager for determinations of relative cdk2 activity.

MKN-74 cells [3] = assay: apoptosis by QFM, Hoechst-33258 staining; type: cell-based, human
Protocol: as §2
Apoptosis was again measured by QFM staining.
as §1
For these studies apoptosis was measured by quantitative fluorescent microscopy (QFM) determination with bisbenzimide trihydrochloride stain (Hoescht-33258) for condensed nuclear chromatin characteristic of apoptotic cells.
For QFM determinations 500 cells were counted and scored for the incidence of apoptotic chromatin changes under an Olympus BH-2 fluorescence microscope in duplicate samples, ±SD, using a BH2-DM2U2UV Dich. Mirror Cube filter.
To study this further applicants elected to examine five bis-indolylmaleimides with various potencies against PKC. […] The induction of apoptosis was estimated by counting the frequency of condensed nuclear chromatin with Hoechst-33258 stain in duplicate samples of 400 cells.

MKN-74 cells [4] = assay: TdT assay with flow cytometry; type: cell-based, human; conditions: 24 hours; safingol 50 μM, MMC 5 μg/ml
Protocol: Apoptosis was measured by two different methods: (i) Quantitative fluorescent microscopy (QFM) of nuclear changes induced by apoptosis, as determined by bisbenzimide trihydrochloride (Hoescht-33258) staining of nuclear chromatin (15), and (ii) a terminal deoxynucleotidyl transferase (TdT) assay that labels the 3′-OH ends of DNA fragments produced in apoptotic cells (16). […] MMC was diluted in water. A stock safingol solution was constituted in DMSO and was subsequently diluted at least 1:100 in media for all experiments. […] For QFM determinations, the cells were fixed in 3% paraformaldehyde and incubated at room temperature for 10 minutes. […] Aliquots of the cells (10 μl) were placed on glass slides coated with 3-amino-propyl-triethoxysilane, and duplicate samples of 500 cells each were counted and scored for the incidence of apoptotic chromatin condensation using an Olympus BH-2 fluorescence microscope equipped with a BH2-DM2U2UV Dich. […] Green (d-dUTP labeled DNA strand breaks) and red (PI staining for total DNA content) fluorescence of individual cells were measured on a FACScan flow cytometer (Becton Dickinson, San Jose, Calif.). […] The R1 cursor was set using the control specimen to define normal levels of green fluorescence (i.e., basal levels of apoptosis). Cells with fluorescence above the R, cursor were considered apoptotic. […]

MDA-MB-468 cells = assay: cell proliferation studies; type: cell-based, human
[5] = rat, in vivo; cited from earlier work

SMILES: CO[C@@]12[C@H](COC(N)=O)C3=C(C(=O)C(C)=C(N)C3=O)N1C[C@@H]1N[C@@H]12 [MMC, Mitomycin-C]
- percentage of cells undergoing apoptosis (QFM) ([1]; 24 hours, MMC 5.0 μg/ml): 6%±1
- percentage of cells undergoing apoptosis (QFM) ([1]; 24 hours, MMC […]): 4%±2
- induction of apoptosis (condensed chromatin, 400 cells) ([1]; MDA-MB-468, 24 hours, UCN-01 7.5 to 10 μM, MMC 5 μg/ml): 6% ± 1
- percentage of cells undergoing apoptosis ([1]; MDA-MB-468, flavopiridol, MMC): 10%±2%
- percentage of cells undergoing apoptosis (QFM) (SK-GT-5 cells): 36%±4
- inhibition of cell proliferation ([2]; MMC 5 μg/ml): < 20% and 20%
- cdk2 activity (cdk2): decreased cdk2
- Percent Apoptosis (MKN-74 cells [3]; 24 h continuous (single drug) or concomitant, flavopiridol 300 nM, MMC 1 μg/ml, paclitaxel 50 μM, carboplatin): 7%±1%
- % APOPTOSIS (MKN-74 cells [3]; 24 hours, FLAVO 300 nM, Taxol 50 μM, MMC 1 μg/ml, single drugs or in combination): 7%
- percent induction of apoptosis, Concomitant (MKN-74 cells [3]; 24 hours, FLAVO 300 nM, Taxol 50 μM, MMC 1 μg/ml, single drugs or together): 7% ± 1%
- induction of apoptosis (condensed chromatin, 400 cells) (MKN-74 cells [3]; 24 hours, PKC inhibitor 1 to 4 μM, MMC 5 μg/ml): 10% ±2%
- percentage of cells undergoing apoptosis (QFM) (MKN-74 cells [3]; 24 hours, RO 32-0432 1 μM, MMC): 16%±2%
- induction of apoptosis (QFM) (MKN-74 cells [3]; 24 hours, safingol 50 μM, UCN-01 10 μM, MMC 5 μg/ml): 26%±5%
- induction of apoptosis (QFM) (MKN-74 cells [3]; FIG. 7, 24 hours, flavopiridol 300 nM, MMC 50 μM (as printed b127)): 7%±1%
- percentage of cells undergoing apoptosis (QFM) (MKN-74 cells [3]; MKN-74 (wild-type p53), 24 hours, safingol 50 μM, MMC 5 μg/ml): 40%
- induction of apoptosis (condensed chromatin, 400 cells) (MKN-74 cells [3]; MKN-74, 24 hours, Flavo 300 nM, MMC 5 μg/ml): 7% ± 1
- percent induction of apoptosis, 6hrs (MKN-74 cells [3]; Ro 2 μM, MMC 1 μg/ml): 1.0%
- percent induction of apoptosis, 12hrs (MKN-74 cells [3]; Ro 2 μM, MMC 1 μg/ml): 0.8%
- percent induction of apoptosis, 24hrs (MKN-74 cells [3]; Ro 2 μM, MMC 1 μg/ml): 5.8%
- percent induction of apoptosis, 48hrs (MKN-74 cells [3]; Ro 2 μM, MMC 1 μg/ml): 27%
- percent induction of apoptosis, 72hrs (MKN-74 cells [3]; Ro 2 μM, MMC 1 μg/ml): 30%
- apoptotic cells: green fluorescence above R1 region (TdT assay) (MKN-74 cells [4]): increased green fluorescence

SMILES: CCCCCCCCCCCCCCC[C@H](O)[C@@H](N)CO [safingol, L-threo-dihydrosphingosine]
- highest non-toxic dose (cell proliferation studies) (MDA-MB-468 cells): 50 µM
- percentage of cells undergoing apoptosis (QFM) ([1]; 24 hours, MMC 5.0 μg/ml): 11%±1
- percentage of cells undergoing apoptosis (QFM) (SK-GT-5 cells): essentially no effect on inducing apoptosis
- potentiation of MMC-induced apoptotic response by addition of safingol (SK-GT-5 cells; SK-GT-5): approximately 2 fold
- potentiation of toxicity of chemotherapeutic agents [5]: did not potentiate the myelotoxicity of these agents
- highest non-toxic dose (cell proliferation studies) ([2]; SK-GT / SK-GT-5 / gastric cancer cells, 24 hours): 50 µM
- cdk2 activity (cdk2): decreased cdk2
- potentiation of MMC-induced apoptotic response by addition of safingol (MKN-74 cells [3]; MKN-74): approximately 2 fold
- apoptotic cells: green fluorescence above R1 region (TdT assay) (MKN-74 cells [4]): essentially no apoptosis
